Data published in PMC9124866, “Structure-Activity Relationships of Dopamine Transporter Pharmacological Chaperones” (Frontiers in Cellular Neuroscience, 2022).

Assays:
[1] = biological target: T1, WT DAT (YFP-HA-DAT) (Homo sapiens, UniProt Q01959); experiment: Western blot of mature WT DAT protein levels; type: cell-based; conditions: overnight 100 μM
T1 construct: expressed in transfected cells; host or cells: HEK293
Method: Cells (1 × 10^6 cells/well) were seeded onto a 6-well plate and incubated for 24 h. Cells were then treated with drugs and incubated for 16 h. After the incubation period, cells were lysed in RIPA buffer supplemented with protease inhibitors (working concentrations: pepstatin A, 5 μg/mL; leupeptin, 10 μg/mL; aprotinin, 1.5 μg/mL; benzamidine, 0.1 μg/mL; PMSF, 0.1 mM) on ice. At 4°C, cell lysates were gently shaken for 15 min followed by centrifugation at 15,000 rpm for 15 min to pellet debris. The Pierce BCA protein assay kit (Thermo Fisher Scientific, Canada) was used to determine the protein concentration of the supernatant. To reach a concentration of 40 μg of protein per 20 μL, samples were diluted in fresh RIPA buffer with 12.5% Laemmli sample buffer and 2.5% β-Mercaptoethanol prior to being heated to 55°C. The protein was then loaded on a 7.5 or 10% SDS-PAGE gel and run at 100 V for approximately an hour or until the dye front reached the bottom of the gel. Next, protein was transferred to a PVDF membrane at 22 V for 16 h or 100 V for 1 h. Blots were blocked with LI-COR blocking buffer for 1 h and incubated for 1 h at room temperature with rabbit anti-GFP (1:1,000 dilution; Life Technologies, cat#A11122). After washing three times with TBST, blots were incubated with goat anti-rabbit IRDye-680RD secondary antibody (1:15,000; LI-COR, cat#926-68071). As a loading control, blots were incubated with mouse anti-GAPDH (1:5,000, Sigma-Aldrich, Canada, cat#G8795) prior to secondary antibody goat anti-mouse IRDye-800GR (1:5,000 dilution, Rockland, Limerick, PA, cat#610-132-007). All antibodies were diluted in LI-COR blocking buffer. Additionally, REVERT total protein staining (LI-COR, Lincoln, NE) was used as a loading control. […] Mature, fully glycosylated DAT (mDAT = 110 kDa) and immature, ER-resident DAT (iDAT = 75 kDa) were visualized using the Odyssey Imaging System (LI-COR, Lincoln, NE) and Image Studio Version 5.2 software (Supplementary Figure 1).
We next assessed whether drugs that increase DAT surface expression also increase total protein levels of DAT. Cells expressing YFP-HA-DAT were incubated with select test compounds and DAT protein levels were examined by western blot. The effects of the compounds were assessed on WT DAT and K590A DAT. The K590A mutant is a well-characterized ER-retained, trafficking-deficient DAT mutant ([Miranda et al., 2004]) that can be rescued by pharmacological chaperones ([Beerepoot et al., 2016]).
FIGURE 5 Effect of noribogaine, tetrahydroharmine, PAL-594, bicifadine, and RTI-20 on WT and K590A DAT expression. […] (B) Quantification of WT mDAT protein levels. […] (D) Quantification of K590A mDAT protein levels. […]

[2] = biological target: YFP-HA-βlac-DAT (Homo sapiens, UniProt Q01959); experiment: β-lactamase (βlac) surface expression assay; type: cell-based; conditions: HEK293, read-out: EMax (%), WT DAT surface expression, HEK cells expressing YFP-HA-βlac-DAT, overnight (16 h) incubation, up to 100 μM, normalized to vehicle; assumed effective EMax
Method: The βlac surface expression assay was performed by following the method outlined in [Lam et al. (2013)] and [Beerepoot et al. (2015], [2016)]. The assay substrate nitrocefin (BD biosciences) was dissolved in dimethyl sulfoxide (DMSO) at a concentration of 10 mM and frozen at −80°C. Immediately before use, it was thawed and diluted to a final concentration of 100 μM in phosphate buffered saline (PBS). Cells (1 × 10^5/well) were seeded into a poly-D-lysine-coated 48-well plate and incubated for 24 h, prior to drug treatment. Drugs were added to individual wells at varying concentrations and incubated for 16 h. Subsequently, the media was aspirated, and the cells were washed twice with PBS. After removal of the final PBS wash, 200 μL of the nitrocefin solution was added to each well and the absorbance was immediately read. The EPOCH microplate spectrophotometer (BioTek) was used to measure absorbance (486 nm) for each well every minute for 30 min. The rate of reaction (slope of the curve) was used as the readout for the assay ([Beerepoot et al., 2015]). To determine suitable concentration ranges for each drug, they were dissolved in PBS or DMSO at the highest concentration possible. From here, the solutions were serial diluted 1/10 to yield 8 different concentrations. βLAC cells were then treated with the varying drug concentrations and cell viability was recorded using light microscopy. For additional measure, nitrocefin was added and the absorbance was read. For certain cases, Trypan Blue was used to quantitatively differentiate increased cell death from reduced cell division. […] Five or six doses were generally used in subsequent dosing experiments, starting at the highest non-toxic concentration.
Data analysis was performed using GraphPad Prism (GraphPad Software, La Jolla, CA). Linear regression analysis was performed on βLAC time points to determine the slope, thus the rate of reaction, for comparison. Furthermore, the slope was also used to determine the degree of dopamine uptake in the dopamine uptake assays. Non-linear regression, fitting to the log(agonist) vs. response and log(inhibitor) vs. response model curve, was used to determine dose-response relationships of surface expression and uptake assays, respectively. One-way ANOVA with Dunnett’s post hoc-test was used for the β-lactamase assay and one-way ANOVA with Bonferroni correction was used for western blot analysis.
Among these were RTI-1, RTI-2, RTI-5, RTI-6, RTI-11, RTI-20, and PAL-1007. […] The EMax values of all the analyzed drugs are included in Figure 1.
The pharmacological chaperone ability of the 15 ibogaine and tryptamine analogs, shown in Figure 3, were measured using the βlac surface expression assay. HEK cells expressing YFP-HA-βlac-DAT were incubated overnight with these compounds at concentrations varying by log and half-log dilutions, starting at 100 μM final concentration. […] Furthermore, it was important to determine whether the β-carboline analogs could also elicit a chaperone effect because they are not classified as DAT ligands ([Cao et al., 2007]). […] Removing the nitrogen from the ring reduced efficacy as observed with frovatriptan (103 ± 1.4%). […] Evodiamine (54 ± 1.7%) had no chaperone ability and caused a substantial reduction in the surface expression of DAT. Dose-response curves were generated to assess the pharmacological chaperone potencies of select compounds (Figure 4).

T1 sequence (Q01959 whole entry): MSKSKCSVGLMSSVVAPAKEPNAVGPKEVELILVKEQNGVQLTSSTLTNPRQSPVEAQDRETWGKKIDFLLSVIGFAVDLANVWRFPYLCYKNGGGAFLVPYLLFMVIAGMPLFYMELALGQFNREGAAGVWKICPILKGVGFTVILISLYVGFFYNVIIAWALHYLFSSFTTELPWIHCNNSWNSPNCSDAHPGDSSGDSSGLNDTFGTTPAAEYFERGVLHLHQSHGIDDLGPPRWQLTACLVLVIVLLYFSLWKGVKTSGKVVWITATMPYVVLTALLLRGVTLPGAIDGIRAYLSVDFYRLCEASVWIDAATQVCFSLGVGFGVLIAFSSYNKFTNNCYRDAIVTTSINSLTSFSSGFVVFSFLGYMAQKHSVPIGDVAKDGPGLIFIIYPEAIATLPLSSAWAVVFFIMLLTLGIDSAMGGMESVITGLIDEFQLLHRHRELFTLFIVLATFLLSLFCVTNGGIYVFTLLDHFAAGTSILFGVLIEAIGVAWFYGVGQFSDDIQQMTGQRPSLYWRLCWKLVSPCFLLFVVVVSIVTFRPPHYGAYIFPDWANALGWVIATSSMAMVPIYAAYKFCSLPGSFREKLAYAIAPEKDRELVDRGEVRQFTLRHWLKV
YFP-HA-βlac-DAT, sequence (Q01959 1-171 limits assumed): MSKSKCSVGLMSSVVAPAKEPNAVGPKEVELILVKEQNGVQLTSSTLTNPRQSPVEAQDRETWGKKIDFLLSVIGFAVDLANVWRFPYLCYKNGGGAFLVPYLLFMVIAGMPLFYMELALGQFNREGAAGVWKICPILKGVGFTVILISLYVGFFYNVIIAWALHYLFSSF
YFP-HA-βlac-DAT, sequence (Q01959 237-620 limits assumed): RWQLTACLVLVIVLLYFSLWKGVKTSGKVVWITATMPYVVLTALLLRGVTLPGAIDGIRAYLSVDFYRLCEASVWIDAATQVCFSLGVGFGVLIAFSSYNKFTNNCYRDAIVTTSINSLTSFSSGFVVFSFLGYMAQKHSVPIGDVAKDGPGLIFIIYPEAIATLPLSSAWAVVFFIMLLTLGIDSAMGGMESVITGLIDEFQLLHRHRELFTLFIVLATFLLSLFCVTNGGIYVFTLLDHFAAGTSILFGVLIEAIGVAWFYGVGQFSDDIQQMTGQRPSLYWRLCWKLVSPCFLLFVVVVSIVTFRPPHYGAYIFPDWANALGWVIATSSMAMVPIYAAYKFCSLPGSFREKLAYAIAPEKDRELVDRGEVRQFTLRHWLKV

With `CCC1CC2CC3c4[nH]c5ccc(O)cc5c4CCN(C2)C13` (centres unmarked) [Noribogaine, reference compound] the “mature WT DAT (mDAT) protein levels” value [1] was “significantly increase” and the Emax [2] was 251 ± 17.8%.
